Assay: pKA value in aqueous solution
Conditions: aqueous solution

| pKa | SMILES |
| --- | --- |
| 8.62 | NCc1ccccn1 |
| 8.9 | COC(=O)C(N)CCCCNC(=O)OC(C)(C)C (stereo not drawn) |
| 7.73 | COC(=O)CN |
| 10.8 | COC(=O)C(CCCCN)NC(=O)OC(C)(C)C (stereo not drawn) |

| SMILES | pKa |
| --- | --- |
| CN(C)c1ccc(N)cc1 | 6.71 |
| NCCc1ccccc1 [PHENETHYLAMINE] | 9.08 |
| NCCc1ccccn1 | 9.52 |

Same assay, conditions: buffer

| SMILES | pKA |
| --- | --- |
| Nc1ccccn1 [2-AMINOPYRIDINE] | 7.6 |
